Results as given in patent US20240398767A1, “INHIBITORS OF THE MTDH-SND1 PROTEIN COMPLEX FOR CANCER THERAPY” (The Trustees of Princeton University, priority 2021, published 2024).

Assays:
SCP28 xenograft tumor = SCP28 xenograft tumor model in NSG mice; type: in vivo; conditions: 8 weeks treatment
Method: FIG. 13A, NGS female mice injected with 2 k SCP28 cells orthotopically were subjected to vehicle or C26-A6 treatment after two weeks. Primary tumor volumes were measured.
FIG. 13B, 8 weeks after treatment, tumor mass was assessed. Vehicle, n=10 mice; C26-A6, n=10 mice. Size bar, 2 cm.
FIG. 13C, 8 weeks after treatment, lung metastasis was assessed. Vehicle, n=10 mice; C26-A6, n=10 mice. Size bar, 5 mm.

[1] = system: E0771-OVA Tap1/2 KD cells; test: E0771-OVA Tap1/2 KD cells / OT-I splenocyte co-culture; type: cell-based, mouse
Description: For FIGS. 33B-33D, E0771-OVA cells with (shTap1/2) or without (shCtrl) Tap1/2 knockdown were co-cultured with OT-I splenocytes with the ratio of 1:10 (tumor cells:splenocytes). Data represent mean±SEM. n=3 independent experiments. Significance determined by one-way ANOVA analysis with Sidak's test for multiple comparisons.
FIG. 33B, 24 hr after co-culture, tumor cells were collected for examining OVA (H-2K^b-SIINFEKL) expression.
FIG. 33C, 24 hr after co-culture, tumor cells were collected for examining MHC-I expression.
FIG. 33D, 24 hr after co-culture, splenocytes were collected for examining CD137 expression.
FIG. 33E, The same co-culture experiment as in FIG. 33B were performed. The live tumor cells were indicated by luciferase signal. The percentage of live cells were determined as normalized to the non-co-culture control. Data represent mean±SEM. n=5 independent experiments. Significance determined by one-way ANOVA analysis with Sidak's test for multiple comparisons.
MTDH-SND1 suppresses antigen presentation by reducing Tap1/2. To confirm that MTDH-SND1 drives immune evasion through suppressing the Tap1/2 pathway, antigen presentation-deficient cells were generated by knocking down Tap1/2^20. E0771-OVA cells were transduced with lentiviruses expressing Tap1/2-targeting shRNAs. […]

[2] = system: SCP28 tumors with MTDH or SND1 KD; test: SCP28 tumor models with MTDH or SND1 KD; type: in vivo, NSG females
Method: FIG. 17A, Indicated cells were injected into NSG females orthotopically and followed by vehicle or C26-A6 treatment after 2 weeks. Tumor volumes were measured 8 weeks after injection. Vehicle, n=6 mice; C26-A6, n=6 mice.
FIG. 17B, Spontaneous lung metastasis of the mice in FIG. 17A were assessed by BLI (right). Size bar, 5 mm. Vehicle, n=5 lungs; C26-A6, n=6 lungs.
FIG. 17C, The SND1 and MTDH expression of the cells used in FIG. 17A was evaluated.
Next, to further validate that the anti-tumor effect of C26-A6 depends on its on-target effects by disrupting MTDH-SND1 complex, PyMT; UBC-Cre^ERT+/−;Mtdh^fl/fl tumor cells with Mtdh depletion or with endogenous Snd1 KD were employed for the similar assay as in FIG. 5-1a. […] Likewise, MTDH or SND1 KD abolished the C26-A6 treatment-induced primary tumor inhibition or metastasis reduction in SCP28 tumor models (Extended Data FIG. 10-1a-c).

## COc1ccc(Cl)cc1S(=O)(=O)Nc1cccn2nc(C)nc12 [Analog C26-A6]
SCP28 xenograft tumor
  primary tumor growth and lung metastasis: confirmed
[1]
  immune killing (live tumor cells): no boosting of immune killing
[1]; 24 hr co-culture
  antigen presentation and T cell activation: no such change
[2]
  C26-A6 treatment-induced primary tumor inhibition or metastasis reduction: abolished
